Tests used:
Assay in all cases: relative viability (nuclei count vs DMSO), 5 days (fraction); higher = more cells survive
[1] = system: COR-L23
Method in brief: (§1)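 Five library-drug doses in √10 steps were combined with a fixed anchor-drug dose, or a single drug was given alone, by pin tool to lung cancer cell lines in 1536-well plates the day after seeding. Nuclei were stained and counted after 5 days. Relative viability is the nuclei count in treated wells over that in vehicle wells, taken as the median of duplicate plates.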

[2] = system: NCI-H2023
Method in brief: as §1

[3] = system: BEN
Method in brief: as §1

[4] = system: NCI-H1975
Method in brief: as §1

[5] = system: NCI-H1734
Method in brief: as §1

[6] = system: NCI-H460
Method in brief: as §1

[7] = system: NCI-H1437
Method in brief: as §1

[8] = system: NCI-H1563
Method in brief: as §1

[9] = system: CAL-12T
Method in brief: as §1

[10] = system: NCI-H1355
Method in brief: as §1

[11] = system: NCI-H838
Method in brief: as §1

[12] = system: SK-LU-1
Method in brief: as §1

[13] = system: LOU-NH91
Method in brief: as §1

[14] = system: NCI-H1793
Method in brief: as §1

[15] = system: NCI-H2085
Method in brief: as §1

[16] = system: NCI-H358
Method in brief: as §1

[17] = system: NCI-H441
Method in brief: as §1

[18] = system: NCI-H1651
Method in brief: as §1

[19] = system: HCC-366
Method in brief: as §1

[20] = system: LU99A
Method in brief: as §1

## CC(=O)O[C@@]12CO[C@@H]1C[C@H](O)[C@@]1(C)C(=O)[C@H](O)C3=C(C)[C@@H](OC(=O)[C@H](O)[C@@H](NC(=O)OC(C)(C)C)c4ccccc4)C[C@@](O)([C@@H](OC(=O)c4ccccc4)[C@H]21)C3(C)C [Docetaxel] + Cc1nc(NC(=O)N2CCC[C@H]2C(N)=O)sc1-c1ccnc(C(C)(C)C(F)(F)F)c1 [Alpelisib] (partner 2 µM)
[1]; first compound 0.0002 µM
  relative viability: 0.65
[1]; first compound 0.000632 µM
  relative viability: 0.718
[1]; first compound 0.002 µM
  relative viability: 0.261
[1]; first compound 0.006325 µM
  relative viability: 0.0995
[1]; first compound 0.02 µM
  relative viability: 0.0707
[2]; first compound 0.0002 µM
  relative viability: 0.49
[2]; first compound 0.000632 µM
  relative viability: 0.553
[2]; first compound 0.002 µM
  relative viability: 0.128
[2]; first compound 0.006325 µM
  relative viability: 0.137
[2]; first compound 0.02 µM
  relative viability: 0.0735
[3]; first compound 0.0002 µM
  relative viability: 0.875
[3]; first compound 0.000632 µM
  relative viability: 0.897
[3]; first compound 0.002 µM
  relative viability: 0.505
[3]; first compound 0.006325 µM
  relative viability: 0.261
[3]; first compound 0.02 µM
  relative viability: 0.19
[4]; first compound 0.0002 µM
  relative viability: 0.617
[4]; first compound 0.000632 µM
  relative viability: 0.437
[4]; first compound 0.006325 µM
  relative viability: 0.156
[4]; first compound 0.02 µM
  relative viability: 0.122
[5]; first compound 0.0002 µM
  relative viability: 0.614
[5]; first compound 0.000632 µM
  relative viability: 0.67
[5]; first compound 0.002 µM
  relative viability: 0.406
[5]; first compound 0.006325 µM
  relative viability: 0.355
[5]; first compound 0.02 µM
  relative viability: 0.267
[6]; first compound 0.0002 µM
  relative viability: 0.303
[6]; first compound 0.000632 µM
  relative viability: 0.185
[6]; first compound 0.002 µM
  relative viability: 0.016
[6]; first compound 0.006325 µM
  relative viability: 0.0118
[6]; first compound 0.02 µM
  relative viability: 0.0069
[7]; first compound 0.0002 µM
  relative viability: 0.888
[7]; first compound 0.000632 µM
  relative viability: 0.759
[7]; first compound 0.002 µM
  relative viability: 0.156
[7]; first compound 0.006325 µM
  relative viability: 0.124
[7]; first compound 0.02 µM
  relative viability: 0.0738
[8]; first compound 0.0002 µM
  relative viability: 0.879
[8]; first compound 0.000632 µM
  relative viability: 0.926
[8]; first compound 0.002 µM
  relative viability: 0.809
[8]; first compound 0.006325 µM
  relative viability: 0.807
[8]; first compound 0.02 µM
  relative viability: 0.55
[9]; first compound 0.0002 µM
  relative viability: 1.06
[9]; first compound 0.000632 µM
  relative viability: 0.699
[9]; first compound 0.002 µM
  relative viability: 0.201
[9]; first compound 0.02 µM
  relative viability: 0.154
[10]; first compound 0.0002 µM
  relative viability: 0.726
[10]; first compound 0.000632 µM
  relative viability: 0.768
[10]; first compound 0.002 µM
  relative viability: 0.435
[10]; first compound 0.006325 µM
  relative viability: 0.313
[10]; first compound 0.02 µM
  relative viability: 0.189
[11]; first compound 0.0002 µM
  relative viability: 0.978
[11]; first compound 0.000632 µM
  relative viability: 0.974
[11]; first compound 0.002 µM
  relative viability: 0.286
[11]; first compound 0.006325 µM
  relative viability: 0.194
[11]; first compound 0.02 µM
  relative viability: 0.157
[12]; first compound 0.0002 µM
  relative viability: 0.766
[12]; first compound 0.000632 µM
  relative viability: 0.467
[12]; first compound 0.002 µM
  relative viability: 0.495
[12]; first compound 0.006325 µM
  relative viability: 0.26
[12]; first compound 0.02 µM
  relative viability: 0.228
[13]; first compound 0.0002 µM
  relative viability: 0.73
[13]; first compound 0.000632 µM
  relative viability: 0.737
[13]; first compound 0.002 µM
  relative viability: 0.565
[13]; first compound 0.006325 µM
  relative viability: 0.394
[13]; first compound 0.02 µM
  relative viability: 0.368
[14]; first compound 0.0002 µM
  relative viability: 0.796
[14]; first compound 0.000632 µM
  relative viability: 0.642
[14]; first compound 0.002 µM
  relative viability: 0.41
[14]; first compound 0.006325 µM
  relative viability: 0.309
[14]; first compound 0.02 µM
  relative viability: 0.222
[15]; first compound 0.0002 µM
  relative viability: 0.93
[15]; first compound 0.000632 µM
  relative viability: 0.905
[15]; first compound 0.002 µM
  relative viability: 0.697
[15]; first compound 0.006325 µM
  relative viability: 0.609
[15]; first compound 0.02 µM
  relative viability: 0.378
[16]; first compound 0.0002 µM
  relative viability: 0.786
[16]; first compound 0.000632 µM
  relative viability: 0.361
[16]; first compound 0.002 µM
  relative viability: 0.267
[16]; first compound 0.02 µM
  relative viability: 0.111
[17]; first compound 0.0002 µM
  relative viability: 0.579
[17]; first compound 0.000632 µM
  relative viability: 0.677
[17]; first compound 0.002 µM
  relative viability: 0.323
[17]; first compound 0.006325 µM
  relative viability: 0.205
[17]; first compound 0.02 µM
  relative viability: 0.172
[18]; first compound 0.0002 µM
  relative viability: 0.811
[18]; first compound 0.000632 µM
  relative viability: 0.944
[18]; first compound 0.002 µM
  relative viability: 0.248
[18]; first compound 0.006325 µM
  relative viability: 0.108
[18]; first compound 0.02 µM
  relative viability: 0.111
[19]; first compound 0.0002 µM
  relative viability: 0.331
[19]; first compound 0.000632 µM
  relative viability: 0.311
[19]; first compound 0.002 µM
  relative viability: 0.0519
[19]; first compound 0.006325 µM
  relative viability: 0.0149
[19]; first compound 0.02 µM
  relative viability: 0.0109
[20]; first compound 0.0002 µM
  relative viability: 0.499
[20]; first compound 0.000632 µM
  relative viability: 0.342
[20]; first compound 0.002 µM
  relative viability: 0.299
[20]; first compound 0.006325 µM
  relative viability: 0.184
[20]; first compound 0.02 µM
  relative viability: 0.139
